# Values of other authors as cited in patent US20180042845A1, “PREPARATIONS OF CANNABIS EMULSIONS AND METHODS THEREOF” (ONE WORLD CANNABIS LTD., priority 2015, published 2018).
# Tests used:
# CB2 receptor = CB2 receptor (Homo sapiens, UniProt P34972)
# Sequence of CB2 receptor (P34972 whole entry): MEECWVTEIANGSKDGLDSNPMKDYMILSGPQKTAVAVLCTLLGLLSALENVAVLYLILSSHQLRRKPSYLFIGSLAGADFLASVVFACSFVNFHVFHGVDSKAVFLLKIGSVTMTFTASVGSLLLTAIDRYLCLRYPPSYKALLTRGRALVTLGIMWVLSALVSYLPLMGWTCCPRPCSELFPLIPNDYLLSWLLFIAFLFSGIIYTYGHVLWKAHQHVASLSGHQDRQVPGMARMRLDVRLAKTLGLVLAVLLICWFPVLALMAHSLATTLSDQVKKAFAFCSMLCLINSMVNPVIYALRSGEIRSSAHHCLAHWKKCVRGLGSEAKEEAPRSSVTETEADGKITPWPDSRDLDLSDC
SMILES,Affinity for CB2 receptors (CB2 receptor),"Fraction of administered dose reaching systemic circulation (oral, first pass hepatic metabolism and high lipid solubility)",Fraction absorbed after a single oral dose (single dose)
C=C(C)[C@@H]1CCC(C)=C[C@H]1c1c(O)cc(CCCCC)cc1O [Cannabidiol],very low affinity,–,–
"CCCCCc1cc(O)c2c(c1)OC(C)(C)[C@@H]1CCC(C)=C[C@@H]21 [THC, Tetrahydrocannabinol]",–,10-20%,90-95%
